“Also recorded” adds a separate entry of the source.
Legend:
MRCKα = MRCKα (Homo sapiens (Human), UniProt Q5VT25); assay: MRCKα kinase assay (IMAP fluorescence polarization); format: biochemical; conditions: 1 μM ATP; read-out: MRCK-a Average Ki
Source text: (§1) MRCKα, MRCKβ, ROCK1 and ROCK2 Kinase Assays

MRCKβ [1] = biological target: T1, MRCKβ (Homo sapiens (Human), UniProt Q9Y5S2); assay: MRCKβ kinase assay (IMAP fluorescence polarization); format: biochemical; conditions: 1 μM ATP; read-out: MRCK-B Average Ki
Source text: as §1

ROCK2 = ROCK2 (Homo sapiens (Human), UniProt O75116); assay: ROCK2 kinase assay (IMAP fluorescence polarization); format: biochemical; conditions: 1 μM ATP; read-out: ROCK2 Average Ki
ROCK2, sequence (O75116 whole entry, the tested form may be a part): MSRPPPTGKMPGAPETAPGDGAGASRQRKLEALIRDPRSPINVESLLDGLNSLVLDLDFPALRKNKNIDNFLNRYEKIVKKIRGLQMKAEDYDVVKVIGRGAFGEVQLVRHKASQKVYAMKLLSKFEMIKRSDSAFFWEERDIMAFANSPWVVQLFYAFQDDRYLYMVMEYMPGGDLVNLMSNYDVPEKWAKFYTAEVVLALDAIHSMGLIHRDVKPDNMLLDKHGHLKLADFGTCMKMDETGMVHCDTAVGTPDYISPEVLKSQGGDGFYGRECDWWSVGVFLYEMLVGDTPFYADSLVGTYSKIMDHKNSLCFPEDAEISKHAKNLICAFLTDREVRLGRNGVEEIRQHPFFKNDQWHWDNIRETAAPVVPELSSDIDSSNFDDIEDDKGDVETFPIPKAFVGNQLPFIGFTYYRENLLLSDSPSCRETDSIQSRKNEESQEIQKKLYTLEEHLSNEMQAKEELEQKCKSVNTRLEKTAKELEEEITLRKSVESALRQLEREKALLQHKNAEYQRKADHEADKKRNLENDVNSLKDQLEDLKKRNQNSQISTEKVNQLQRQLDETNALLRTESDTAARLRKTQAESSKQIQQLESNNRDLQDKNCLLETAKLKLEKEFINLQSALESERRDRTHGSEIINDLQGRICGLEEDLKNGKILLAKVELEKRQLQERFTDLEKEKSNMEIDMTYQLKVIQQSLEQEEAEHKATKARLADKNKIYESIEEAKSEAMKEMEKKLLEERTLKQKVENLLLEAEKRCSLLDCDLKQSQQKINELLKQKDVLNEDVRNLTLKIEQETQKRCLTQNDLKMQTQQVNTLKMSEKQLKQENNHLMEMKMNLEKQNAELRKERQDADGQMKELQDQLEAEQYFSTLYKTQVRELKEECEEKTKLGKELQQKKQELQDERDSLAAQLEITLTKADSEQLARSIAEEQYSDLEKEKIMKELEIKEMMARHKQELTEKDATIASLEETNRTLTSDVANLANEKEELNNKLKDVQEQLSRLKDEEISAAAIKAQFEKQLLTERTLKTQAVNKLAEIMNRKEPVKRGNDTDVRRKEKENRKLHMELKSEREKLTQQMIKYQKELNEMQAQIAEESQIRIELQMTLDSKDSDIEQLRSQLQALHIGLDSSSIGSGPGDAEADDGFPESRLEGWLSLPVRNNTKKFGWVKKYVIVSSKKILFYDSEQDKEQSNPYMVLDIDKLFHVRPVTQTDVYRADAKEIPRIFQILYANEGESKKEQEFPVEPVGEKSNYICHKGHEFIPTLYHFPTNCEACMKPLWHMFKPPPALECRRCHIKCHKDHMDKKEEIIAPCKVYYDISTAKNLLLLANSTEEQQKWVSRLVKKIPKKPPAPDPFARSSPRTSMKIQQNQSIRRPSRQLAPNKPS
Method: MRCKα, MRCKβ, ROCK1 and ROCK2 assays were performed using an IMAP fluorescence polarization assay format (Molecular Devices Inc.). 8-12 nM of each kinase (Life Technologies) was incubated for 60 min at room temperature with 100 nM FAM-S6-ribosomal protein derived peptide (synthesized by Alta Biosciences, University of Birmingham UK) in the presence of 1 μM ATP and 0.5 mM MgCl2 in 20 mM Tris buffer (pH 7.4) containing 0.01% Tween-20 and 1 mM DTT (MRCKα and β); or 1 μM ATP, 10 mM MgCl2 in 20 mM Tris buffer (pH 7.5) containing 0.25 mM EGTA 0.01% Triton X-100 and 1 mM DTT (ROCK1 and ROCK2). Typically, dose response analyses were performed over concentration ranges from 0.005-100 μM. Reactions were stopped by adding 2 assay volumes of 0.25% (v/v) IMAP binding reagent in 1×IMAP binding buffer A (Molecular Devices). After 30 min incubation to allow binding reagent to bind phosphorylated peptide, fluorescence polarization was measured on a Tecan Saphire^2 plate reader at excitation (470 nm) and emission (530 nm) wavelengths.

MRCKβ [2] = biological target: T1, MRCKβ; assay: MRCKβ cellular assay (pMLC T18/S19 immunoblot, MDA-MB-231 cells with doxycycline inducible kinase domain); format: cell-based; conditions: MDA-MB-231 cells, doxycycline inducible kinase domain, 60 minutes, pMLC (T18/S19); read-out: Cellular assay - MRCK-b inhibition MEAN
Method: (§2) MRCKβ, ROCK1 and ROCK2 Cellular Assays
(§3) MDA-MB-231 cells expressing doxycycline inducible ROCK1, ROCK2 or MRCKβ kinase domains were plated at 1.1×10^5 cells per well of a 12 well plate. After 24 hours, cells were treated with 1 μg/ml doxycycline for 18 hours to induce kinase domain expression and then tested over a suitable concentration range with compounds of the invention for 60 minutes. Cells were then washed with PBS and lysed with Tris-SDS lysis Buffer (50 mM Tris-HCl pH7.4, 0.5% (v/v) SDS, 1×PhosStop Inhibitors (04 906 837 001; Roche) and 1×Complete Protease Inhibitors (04 693 124 001; Roche)). Whole cell lysates were clarified by passing through QIAshredder spin columns, separated by SDS-PAGE, and quantitative immunoblotting performed using a LI-COR Odyssey IR scanner to determine pMLC (T18/S19) and α-Tubulin levels.

ROCK1 [3] = biological target: T2, ROCK1 (Homo sapiens (Human), UniProt Q13464); assay: ROCK1 cellular assay (pMLC T18/S19 immunoblot, MDA-MB-231 cells with doxycycline inducible kinase domain); format: cell-based; conditions: MDA-MB-231 cells, doxycycline inducible kinase domain, 60 minutes, pMLC (T18/S19); read-out: Cellular assay - ROCK1 inhibition MEAN
T2 sequence (Q13464 2-1354 limits assumed): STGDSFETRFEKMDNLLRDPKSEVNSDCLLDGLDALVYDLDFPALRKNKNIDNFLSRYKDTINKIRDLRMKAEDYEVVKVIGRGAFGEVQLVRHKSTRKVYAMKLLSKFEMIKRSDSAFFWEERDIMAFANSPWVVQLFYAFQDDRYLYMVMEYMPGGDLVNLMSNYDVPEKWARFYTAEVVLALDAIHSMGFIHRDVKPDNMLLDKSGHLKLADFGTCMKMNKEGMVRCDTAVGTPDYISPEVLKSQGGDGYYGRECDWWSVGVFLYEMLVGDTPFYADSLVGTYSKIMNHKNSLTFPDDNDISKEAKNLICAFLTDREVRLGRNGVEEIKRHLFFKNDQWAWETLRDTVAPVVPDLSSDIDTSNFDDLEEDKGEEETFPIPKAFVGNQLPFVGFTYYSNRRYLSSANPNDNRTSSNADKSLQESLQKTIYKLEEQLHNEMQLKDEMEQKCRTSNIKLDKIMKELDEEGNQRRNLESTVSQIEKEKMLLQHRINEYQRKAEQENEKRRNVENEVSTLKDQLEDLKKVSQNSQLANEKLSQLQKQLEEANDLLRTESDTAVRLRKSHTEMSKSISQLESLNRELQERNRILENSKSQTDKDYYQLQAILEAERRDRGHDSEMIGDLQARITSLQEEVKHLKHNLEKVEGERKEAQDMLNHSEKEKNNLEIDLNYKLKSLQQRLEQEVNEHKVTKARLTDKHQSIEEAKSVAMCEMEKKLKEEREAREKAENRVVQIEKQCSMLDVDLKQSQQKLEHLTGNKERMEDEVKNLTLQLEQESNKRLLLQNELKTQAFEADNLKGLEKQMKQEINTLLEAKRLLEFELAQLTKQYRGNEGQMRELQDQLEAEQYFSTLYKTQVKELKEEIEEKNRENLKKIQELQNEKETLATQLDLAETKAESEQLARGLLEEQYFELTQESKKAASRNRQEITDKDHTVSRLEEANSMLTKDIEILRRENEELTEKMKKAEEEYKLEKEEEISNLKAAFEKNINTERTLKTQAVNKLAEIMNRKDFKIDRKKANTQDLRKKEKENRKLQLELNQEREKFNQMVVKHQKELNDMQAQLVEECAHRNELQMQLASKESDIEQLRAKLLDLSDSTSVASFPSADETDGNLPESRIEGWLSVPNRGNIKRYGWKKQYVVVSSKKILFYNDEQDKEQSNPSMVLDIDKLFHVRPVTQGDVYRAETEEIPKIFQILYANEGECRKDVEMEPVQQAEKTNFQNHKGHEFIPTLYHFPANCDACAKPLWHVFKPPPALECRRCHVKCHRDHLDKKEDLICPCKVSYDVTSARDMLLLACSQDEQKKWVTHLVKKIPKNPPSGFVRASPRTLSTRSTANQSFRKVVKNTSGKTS
Method: as §2, §3

DMBA/TPA skin papillomas = assay: DMBA/TPA mouse model of squamous cell carcinoma, topical treatment; format: in vivo; conditions: topical 25 μg 5 times per week for 14 weeks, vs DMSO
Method: (§4) For DMBA/TPA experiments, 40 FVB mice were treated topically with 25 μg DMBA in acetone on day 1. From day 5, 4.7 μg TPA in acetone was applied 3 times weekly. […] Experimenters were fully blinded to the identity of treatment groups. Mice weights and general conditions were monitored at least 2 times per week, tumor sizes and numbers were recorded weekly. Mice were culled when papillomas reached 12 mm in diameter. Analysis of tumor volume and papilloma numbers were performed blinded to the identity of treatment groups.

E2 and G7 cells = assay: Sub confluent migration assay of irradiated GBM cells (timelapse, single cell tracking); format: cell-based, human; conditions: 2 Gy
Method: (§5) Cells were irradiated using an Xstrahl RX225 radiation cabinet (195 kV X-rays, dose rate 1.39 Gy/minute). For sub confluent migration assays, 2×10^5 cells per well were plated at in 6 well dishes and migration imaged by timelapse microscopy capturing images every 15 mins. Migration velocity was calculated using single cell tracking via ImageJ analysis. For ex vivo migration assays, cell were seeded onto fresh 1 mm coronal brain slices obtained from 6-8 week old C57BL/6 mice in culture medium (described above) and allowed to establish overnight with incubation at 37° C., 5% CO2. Brain slices were then inverted onto Lumox 35 mm dishes (8 μm, Sarstedt) and secured with Nuclepore Track-Etch membrane (Whatman) sealed with Matrigel. Migration was captured via confocal timelapse microscopy with images taken every 15 mins. Migration velocity was calculated using single cell tracking via ImageJ analysis.
(§6) (B) Treated cells were exposed to 0 Gy or 2 Gy and imaged in a sub-confluent migration assay. Cell speed was measured by single cell tracking. […] Data from 3 biological replicates. (D) Fluorescently labelled E2 cells were exposed to 0 Gy or 2 Gy radiation and seeded onto fresh murine brain slices. […] Data from 3 biological replicates. […] Baseline value of 34% was calculated from the average of 10 non-motile, non-irradiated cells. […]

E2 cells [4] = assay: Ex vivo migration assay of irradiated GBM cells on murine brain slices; format: cell-based, human; conditions: 100 nM, 2 Gy
Method: as §5, §6

G7 cells = assay: Cell viability assay; format: cell-based, human
Source text: (§7) FIG. 4. […] N.S.=not significant. […] Cells were imaged using an Operetta high-throughput imaging platform. Red: actin, blue: DAPI, Scale bar: 100 μm. Automated image analysis was undertaken to quantify changes in neurite morphology. Data from >1000 cells.

G7 and E2 cells = assay: Clonogenic survival assay with irradiation; format: cell-based, human; conditions: 100 nM, G7 or E2 cells
Source text: as §7

pMLC2 = pMLC2 immunofluorescence, Operetta high-throughput imaging; format: cell-based, human
Source text: Cells were imaged using an Operetta high-throughput imaging platform. Green: pMLC2; yellow: actin; red: whole cell dye; blue: DAPI; Scale bar: 100 μm. (ii) Automated image analysis was undertaken to compare pMLC2 levels in control and irradiated cells. Data are derived from two biological repeats, each analysing >400 cells per condition.
Cells were imaged using an Operetta high-throughput imaging platform. Automated image analysis was used to compare pMLC2 levels. Data from two biological repeats with >400 cells per condition per biological replicate. Data plotted as a percentage of vehicle. […] Cells were imaged using an Operetta high-throughput imaging platform.

E2 cells [5] = assay: Neurite morphology, automated image analysis; format: cell-based, human; conditions: cells treated with irradiation
Source text: as §7

[6] = PK analysis in mice bearing intracranial U87MG or G7 tumours, subcutaneous dosing; format: in vivo, mouse
Method: (§8) Female CD1 nude mice were orthotopically injected with 1×10^5 G7 or U87MG cells into the subventricular zone as previously described (16, 17). Tumours were allowed to establish for before magnetic resonance imaging (MRI) to confirm presence of tumour. Radiation treatments were conducted using an XSrtahl Small Animal Radiation Research Platform (SARRP). […] Tumours were sub-dissected and fresh frozen specimens sent for PK analysis (Vertex, UK). Formalin fixed, paraffin embedded sections were stained for Ki67, HLA or phosphoMYPT1 then scanned using a Hamamatsu Nanozoomer Slide scanning machine with Leica SlidePath Slide imaging software. Algorithms were optimised for each stain individually and automated, quantitative analysis undertaken. The defining of contralateral regions was performed blinded.
(§9) Tumours were sub-dissected from normal brain tissue and analysed by mass spectrometry to determine total compound levels (‘Total’). […] G7 intracranial tumours were allowed to establish for 12 weeks before initiation of treatment. The study was randomised and blinded. […] (D) Brain sections were stained by IHC for pMYPT1 levels (i). Levels of nuclear and cytoplasmic pMYPT1 were quantified by automated analysis using SlidePath. Statistical analysis: two tailed, unpaired t test. *p<0.05.

Plasma protein binding = format: in vitro ADME
pMYPT1 = pMYPT1 IHC of brain sections from mice bearing G7 intracranial tumours; format: in vivo, mouse; conditions: 3×2 Gy whole brain RT + 5 mg/kg twice daily for 10 days; listed as BDP-9066
Method: as §8, §9

G7 intracranial tumours = assay: Survival of mice bearing G7 intracranial GBM tumours; format: in vivo, mouse
Method: Female CD1 nude mice were orthotopically injected with 1×10^5 G7 or U87MG cells into the subventricular zone as previously described (16, 17). Tumours were allowed to establish […] magnetic resonance imaging (MRI) to confirm presence of tumour. Radiation treatments were conducted using an XSrtahl Small Animal Radiation Research Platform (SARRP). 5 mg/kg BDP-9066 or vehicle (20% propylene glycol/80% PBS) was given subcutaneously twice daily or at stated time before cull for PK analysis. Tumours were sub-dissected and fresh frozen specimens sent for PK analysis (Vertex, UK). Formalin fixed, paraffin embedded sections were stained for Ki67, HLA or phosphoMYPT1 then scanned using a Hamamatsu Nanozoomer Slide scanning machine with Leica SlidePath Slide imaging software. Algorithms were optimised for each stain individually and automated, quantitative analysis undertaken. The defining of contralateral regions was performed blinded.
FIG. 6. […] (A) Outline of experiment to measure in vivo survival to BDP-9066 treatment. G7 intracranial tumours were allowed to establish for 10 weeks before initiation of treatment. Mice in the RT cohorts received 6×2 Gy whole brain RT over the course of two weeks. Only mice that were culled after the first 3 fractions of RT were included in the analysis to allow for any treatment benefit to take effect. The study was randomised, blinded and the mice stratified across the cohorts based on starting tumour size as assessed by T2 MRI. (B) Kaplan-Meier plot showing survival data. N.S.=not significant, *<p 0.05, **p<0.005. Statistical analysis: Log-rank (Mantel-Cox) test.
Pharmacological inhibition of MRCK when combined with radiotherapy confers a significant survival benefit to intracranial GBM tumour bearing mice. G7 intracranial tumours were established in four cohorts of mice: vehicle, BDP-9066, RT+vehicle and RT+BDP-9066 (FIG. 6A) and the 4 week treatment schedule outlined in FIG. 6A was commenced at 10 weeks post tumour cell injection. The experiment was terminated at 104 days after a final T2 MRI on the remaining mice.

ROCK1 [7] = biological target: T2, ROCK1; assay: biochemical
Method: MRCKα, MRCKβ, ROCK1 and ROCK2 assays were performed using an IMAP fluorescence polarization assay format (Molecular Devices Inc.). […] Typically, dose response analyses were performed over concentration ranges from 0.005-100 μM. […] After 30 min incubation to allow binding reagent to bind phosphorylated peptide, fluorescence polarization was measured on a Tecan Saphire^2 plate reader at excitation (470 nm) and emission (530 nm) wavelengths.

[8] = biological target: kinase targets listed in tables 3 and 4 (Homo sapiens, UniProt Q13464); assay: biochemical
kinase targets listed in tables 3 and 4 (Homo sapiens, UniProt Q13464), sequence (Q13464 2-1354 limits assumed): as above

[9] = biological target: kinase targets listed in tables 3 and 4 (Homo sapiens, UniProt Q9BXA7); assay: biochemical
kinase targets listed in tables 3 and 4 (Homo sapiens, UniProt Q9BXA7), sequence (Q9BXA7 whole entry, looked up): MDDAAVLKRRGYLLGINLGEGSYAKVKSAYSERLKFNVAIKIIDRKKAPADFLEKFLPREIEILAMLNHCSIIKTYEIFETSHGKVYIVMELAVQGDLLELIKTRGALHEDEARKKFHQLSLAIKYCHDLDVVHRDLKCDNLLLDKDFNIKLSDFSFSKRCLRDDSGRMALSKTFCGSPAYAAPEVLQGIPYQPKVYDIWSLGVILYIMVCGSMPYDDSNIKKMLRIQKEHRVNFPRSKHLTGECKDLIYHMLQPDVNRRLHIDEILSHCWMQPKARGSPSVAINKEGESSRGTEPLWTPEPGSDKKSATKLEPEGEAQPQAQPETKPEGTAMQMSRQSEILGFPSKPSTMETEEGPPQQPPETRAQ

[10] = biological target: kinase targets listed in tables 3 and 4 (Homo sapiens, UniProt Q9Y5S2); assay: biochemical
kinase targets listed in tables 3 and 4 (Homo sapiens, UniProt Q9Y5S2), sequence (Q9Y5S2 whole entry, looked up): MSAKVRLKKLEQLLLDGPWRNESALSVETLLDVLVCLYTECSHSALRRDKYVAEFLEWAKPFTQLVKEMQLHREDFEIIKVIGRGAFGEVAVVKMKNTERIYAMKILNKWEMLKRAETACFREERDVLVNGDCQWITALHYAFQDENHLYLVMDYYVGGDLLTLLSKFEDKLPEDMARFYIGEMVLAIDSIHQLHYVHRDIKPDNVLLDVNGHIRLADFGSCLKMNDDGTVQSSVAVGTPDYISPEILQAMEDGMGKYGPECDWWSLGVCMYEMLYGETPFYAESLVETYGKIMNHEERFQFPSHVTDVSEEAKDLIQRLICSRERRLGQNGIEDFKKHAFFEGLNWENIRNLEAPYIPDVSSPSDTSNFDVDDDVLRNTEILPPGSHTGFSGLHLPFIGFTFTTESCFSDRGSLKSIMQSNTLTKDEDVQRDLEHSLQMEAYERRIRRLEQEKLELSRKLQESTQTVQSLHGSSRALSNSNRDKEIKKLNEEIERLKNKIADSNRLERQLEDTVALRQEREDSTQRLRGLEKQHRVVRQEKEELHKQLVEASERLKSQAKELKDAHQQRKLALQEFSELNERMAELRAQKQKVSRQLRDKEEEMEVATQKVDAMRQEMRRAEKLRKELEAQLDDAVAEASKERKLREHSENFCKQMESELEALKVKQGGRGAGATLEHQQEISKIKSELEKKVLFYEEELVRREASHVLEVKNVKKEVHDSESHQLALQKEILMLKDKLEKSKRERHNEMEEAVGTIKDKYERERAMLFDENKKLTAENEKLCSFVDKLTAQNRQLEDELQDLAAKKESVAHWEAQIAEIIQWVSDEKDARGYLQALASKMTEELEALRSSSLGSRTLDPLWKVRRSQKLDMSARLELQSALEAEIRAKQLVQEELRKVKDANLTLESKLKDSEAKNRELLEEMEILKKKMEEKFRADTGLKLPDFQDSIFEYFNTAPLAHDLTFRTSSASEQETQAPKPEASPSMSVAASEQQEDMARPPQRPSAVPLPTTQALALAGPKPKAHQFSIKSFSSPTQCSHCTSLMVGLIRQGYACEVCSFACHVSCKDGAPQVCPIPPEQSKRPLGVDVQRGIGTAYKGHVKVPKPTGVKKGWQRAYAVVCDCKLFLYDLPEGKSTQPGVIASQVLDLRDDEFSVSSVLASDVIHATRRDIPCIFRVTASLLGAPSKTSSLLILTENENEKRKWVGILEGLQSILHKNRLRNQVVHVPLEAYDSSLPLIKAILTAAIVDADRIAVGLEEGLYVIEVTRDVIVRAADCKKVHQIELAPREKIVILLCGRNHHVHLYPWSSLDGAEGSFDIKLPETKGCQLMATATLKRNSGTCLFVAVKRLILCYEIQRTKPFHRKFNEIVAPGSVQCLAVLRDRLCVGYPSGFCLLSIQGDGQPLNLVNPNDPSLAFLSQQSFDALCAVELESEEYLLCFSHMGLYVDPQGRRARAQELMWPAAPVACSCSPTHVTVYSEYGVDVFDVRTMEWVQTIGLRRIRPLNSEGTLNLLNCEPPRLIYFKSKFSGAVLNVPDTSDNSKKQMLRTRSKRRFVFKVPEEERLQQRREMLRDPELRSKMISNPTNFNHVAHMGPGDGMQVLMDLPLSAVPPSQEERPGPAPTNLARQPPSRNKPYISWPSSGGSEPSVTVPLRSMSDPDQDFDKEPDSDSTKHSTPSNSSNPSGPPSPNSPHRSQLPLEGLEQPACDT

[11] = Skin and blood compound concentrations after topical application to FVB mice
Method: (§10) Mice were culled 2 hours after final treatment. […] Mice were culled 2 hours, 4 hours, 8 hours or 24 hours after final treatment.
as §4

MRCKα pS1003 = MRCKα pS1003 immunohistochemical staining of topically treated mouse skin and papillomas; conditions: vs DMSO
Method: as §10, §4

[12] = FVB, mouse, skin, topical, 25 μg

Q: For `c1cc(-c2c[nH]c3nccc(N4CCC[C@@]5(CCCCN5)C4)c23)ncn1` [Example E117, (6S)-8-(3-pyrimidin-4-yl-1H-pyrrolo[2,3-b]pyridin-4-yl)-1,8-diazaspiro[5.5]undecane], which Ki (MRCKα) is on record?
A: The Ki was 0.0136 nM.

Q: And the Ki (MRCKβ [1])?
A: Its Ki is 0.0233 nM.

Q: What about the Ki (ROCK2) of the same molecule?
A: Its Ki is 5.38 nM.

Q: And the IC50 (MRCKβ [2])?
A: Its IC50 is 28.3 nM.

Q: What about the IC50 (ROCK1 [3]) of the same molecule?
A: The IC50 was 10600 nM.

Q: And the “average papilloma volume per mouse” value (DMBA/TPA skin papillomas)?
A: Its value is “significantly reduced”.

Q: What about the “skin papilloma appearance at study end” value (DMBA/TPA skin papillomas) of the same molecule?
A: The value was “appeared visually smaller”.

Q: What about the “total papilloma numbers per mouse” value (DMBA/TPA skin papillomas) of the same molecule?
A: Its value is “not different”.

Q: What about the “total tumor volume per mouse” value (DMBA/TPA skin papillomas) of the same molecule?
A: The value was “significantly reduced”.

Q: And the “radiation driven sub confluent migration” value (E2 and G7 cells; 100 nM, G7 and E2 cells)?
A: Its value is “fully oppose”.

Q: What about the “cell speed of irradiated GBM cells” value (E2 and G7 cells; increasing concentrations, E2 and G7 cells) of the same molecule?
A: Its value is “robust dose response”.

Q: What about the “radiation driven ex vivo brain slice invasion” value (E2 cells [4]) of the same molecule?
A: Its value is “fully oppose”.

Q: What about the “cell viability at higher concentrations” value (G7 cells; higher concentrations, likely off target toxicity) of the same molecule?
A: Its value is “loss of cell viability”.

Q: And the cell viability (G7 cells; sub-micromolar levels / anti-invasive concentrations, G7 cells, listed as BDP-9066)?
A: The cell viability was “does not affect cell survival; also recorded: No effect”.

Q: What about the “radiation sensitivity measured by clonogenic survival” value (G7 and E2 cells) of the same molecule?
A: The value was “no impact”.

Q: What about the IC50 (pMLC2; Homo sapiens, light or radiation study, irradiated G7 and E2 cells) of the same molecule?
A: Its IC50 is 56 nM.

Q: And the “response in biomarker assay (pMLC2)” value (pMLC2; cells treated with irradiation)?
A: Its value is “robust dose dependent response”.

Q: What about the “response in morphological assay (neurites)” value (E2 cells [5]) of the same molecule?
A: Its value is “robust dose dependent response”.

Q: What about the “penetration of intracranial tumours” value ([6]; 5 mg/Kg subcutaneous, 30 mins prior to cull, U87MG and G7 tumours, listed as BDP-9066) of the same molecule?
A: Its value is “penetrates intracranial GBM xenografts; also recorded: penetrated intracranial tumours”.

Q: What about the “presence in blood at the time of culling” value ([6]; 5 mg/kg subcutaneous twice daily for 10 days) of the same molecule?
A: Its value is “micromolar concentrations”.

Q: What about the bioavailability ([6]; PK profile, data not shown) of the same molecule?
A: Its bioavailability is “good bioavailability”.

Q: And the clearance ([6]; PK profile, data not shown)?
A: The clearance was “rapid clearance”.

Q: What about the “exposure in the brain, contralateral hemisphere” value ([6]; sub-cutaneous dosing, absence of significant tumour burden) of the same molecule?
A: The value was “very low exposure”.

Q: What about the PPB free value (Plasma protein binding) of the same molecule?
A: Its PPB free value is 72.7%.

Q: And the fraction unbound (Plasma protein binding; plasma)?
A: The fraction unbound was 0.727.

Q: What about the “radiation driven MYPT1 phosphorylation” value (pMYPT1) of the same molecule?
A: Its value is “inhibits; also recorded: opposes”.

Q: What about the “survival, combined with RT vs untreated cohort” value (G7 intracranial tumours; 6×2 Gy whole brain RT, p=0.0007, listed as BDP-9066) of the same molecule?
A: Its value is “significant survival advantage; also recorded: highly significant increase in survival”.

Q: What about the “survival, combined with RT vs radiation alone” value (G7 intracranial tumours; 6×2 Gy whole brain RT, p=0.0459) of the same molecule?
A: The value was “significantly above”.

Q: What about the “survival, compound alone” value (G7 intracranial tumours; vs untreated cohort) of the same molecule?
A: Its value is “no significant survival benefit”.

Q: What about the Ki (ROCK1 [7]) of the same molecule?
A: The Ki was 18.4 nM.

Q: What about the IC50 [8] of the same molecule?
A: The IC50 was 141 nM.

Q: What about the Ki [8] of the same molecule?
A: Its Ki is 54 nM.

Q: What about the IC50 [9] of the same molecule?
A: The IC50 was 287 nM.

Q: And the Ki [9]?
A: Its Ki is 136 nM.

Q: And the IC50 [10]?
A: Its IC50 is 8.3 nM.

Q: And the Ki [10]?
A: Its Ki is 1.38 nM.

Q: And the “compound in blood at experimental endpoint” value ([11]; DMBA/TPA FVB mice, topical 25 μg 5 times per week for 14 weeks)?
A: The value was “no detectable levels; also recorded: undetectable”.

Q: And the concentration at 2 h ([11]; FVB, mouse, blood, topical, 25 μg)?
A: Its concentration at 2 h is 0.04 µM.

Q: What about the concentration at 14 weeks [11, 12] of the same molecule?
A: The concentration at 14 weeks was greater than 1 µM.

Q: And the concentration at 2 h [11, 12]?
A: The concentration at 2 h was 26 µM.

Q: What about the concentration at 24 h [11, 12] of the same molecule?
A: Its concentration at 24 h is greater than 16 µM.

Q: What about the “clearance in the blood” value ([11]; by deactivation and/or metabolism) of the same molecule?
A: The value was “rapid clearance”.

Q: What about the “drug levels in the skin compared with blood” value ([11]; topical 4×25 μg over 2 days, dorsal skin) of the same molecule?
A: Its value is “significantly higher than in blood”.

Q: And the “mean concentration in the skin” value ([11]; topical administration, DMBA/TPA experiment)?
A: The value was “greater than 1 micromolar”.

Q: What about the “level in blood 24 hours after final dosing” value ([11]; topical single 25 μg or 8×25 μg (4 days on, 2 off, 4 on)) of the same molecule?
A: Its value is “undetectable”.

Q: What about the “compound accumulation on repeated dosing” value ([11]; topical, repeated 25 μg vs single 10 μg) of the same molecule?
A: The value was “less than additive”.

Q: What about the “MRCKα pS1003 cytoplasmic histoscores in papillomas” value (MRCKα pS1003; DMBA/TPA mice, topical 25 μg) of the same molecule?
A: The value was “reduced histoscores”.

Q: What about the “MRCKα pS1003 cytoplasmic histoscores in the treated skin area” value (MRCKα pS1003; DMBA/TPA mice, topical 25 μg) of the same molecule?
A: The value was “reduced histoscores”.

Q: And the “MRCKα pS1003 immunohistochemistry staining” value (MRCKα pS1003; DMBA/TPA treated skin, topical 25 μg)?
A: The value was “significant decreases”.

Q: What about the “epidermal MRCKα pS1003 positive staining” value (MRCKα pS1003; topical 4×25 μg over 2 days, FVB mouse skin) of the same molecule?
A: Its value is “significant reduction; also recorded: significantly reduced”.
